Test results published in patent US7851632B2, “Biphenyl compounds useful as muscarinic receptor antagonists” (Theravance, Inc., priority 2004, dated 2010).

System: ACh-induced bronchoconstriction
Test: Duration of bronchoprotection in guinea pig model of acetylcholine-induced bronchoconstriction
Format: in vivo
Settings: inhalation, 1.5 hours post-dose
Description: Determination of Duration of Bronchoprotection in Guinea Pig Model of Acetylcholine-Induced Bronchoconstriction
Groups of six male guinea pigs (Duncan-Hartley (HsdPoc:DH) Harlan, Madison, Wis.) weighing between 250 and 350 g were individually identified by cage cards. Throughout the study animals were allowed access to food and water ad libitum.
Test compounds were administered via inhalation over 10 minutes in a whole-body exposure dosing chamber (R&S Molds, San Carlos, Calif.). The dosing chambers were arranged so that an aerosol was simultaneously delivered to 6 individual chambers from a central manifold. Guinea pigs were exposed to an aerosol of a test compound or vehicle (WFI). […] This was measured gravimetrically by comparing pre- and post-nebulization weights of the filled nebulizer.
The bronchoprotective effects of test compounds administered via inhalation were evaluated using whole body plethysmography at 1.5, 24, 48 and 72 hours post-dose.
Forty-five minutes prior to the start of the pulmonary evaluation, each guinea pig was anesthetized with an intramuscular injection of ketamine (43.75 mg/kg), xylazine (3.50 mg/kg) and acepromazine (1.05 mg/kg). […] The depth of anesthesia was monitored and adjusted if the animal responded to pinching of its paw or if the respiration rate was greater than 100 breaths/minute. […]

CN(CCN1CCC(OC(=O)Nc2ccccc2-c2ccccc2)CC1)C(=O)c1ccc(CNCc2ccc(O)cc2)cc1 [Example 1, Biphenyl-2-ylcarbamic Acid 1-[2-({4-[(4-Hydroxybenzylamino)methyl]benzoyl}methylamino)ethyl]piperidin-4-yl Ester]
PD2(50) for ACh-induced bronchoconstriction: less than 200 μg/mL
